Results on 5 molecules are retold here after PubChem BioAssay AID1259407 (Chemical Carcinogenesis Research Information System (CCRIS), 2018).

Active and inactive are the calls of the source. How the calls were made is not given here.

The data set concerns CCRIS mutagenicity, Ames/micronucleus/aberration tests. The experiment in a line: CCRIS mutagenicity studies.
The mark [1] stands for this setting: Test System: AMES SALMONELLA TYPHIMURIUM, Strain/Indicator: TA1535, Metabolic Activation: NONE, Method: STANDARD PLATE.

For the molecule `NNC(=O)c1ccncc1`, the mutagenic call runs as follows: (Test System: AMES SALMONELLA TYPHIMURIUM, Strain/Indicator: G46, Metabolic Activation: HAMSTER, LIVER, HOMOGENATE (HEAT-INACTIVATED), Method: PREINCUBATION) “inactive; negative”; (Test System: AMES SALMONELLA TYPHIMURIUM, Strain/Indicator: G46, Metabolic Activation: HAMSTER, LIVER, HOMOGENATE, Method: PREINCUBATION) “active; positive”; (Test System: AMES SALMONELLA TYPHIMURIUM, Strain/Indicator: G46, Metabolic Activation: MOUSE, LIVER, HOMOGENATE, Method: PREINCUBATION) “active; positive”; (Test System: AMES SALMONELLA TYPHIMURIUM, Strain/Indicator: G46, Metabolic Activation: NONE, Method: STANDARD PLATE) “inactive; negative”; (Test System: AMES SALMONELLA TYPHIMURIUM, Strain/Indicator: G46, Metabolic Activation: RAT, LIVER, HOMOGENATE, Method: PREINCUBATION) “active; positive”; (Test System: AMES SALMONELLA TYPHIMURIUM, Strain/Indicator: TA92, Metabolic Activation: NONE, Method: STANDARD PLATE) “active; positive”. For the same molecule, the mutagenic call is, setting by setting: (Test System: AMES SALMONELLA TYPHIMURIUM, Strain/Indicator: TA100, Metabolic Activation: MOUSE, LIVER, S-9, Method: STANDARD PLATE) “inactive; negative”; (Test System: AMES SALMONELLA TYPHIMURIUM, Strain/Indicator: TA100, Metabolic Activation: NONE, Method: STANDARD PLATE) “active; positive”; (Test System: AMES SALMONELLA TYPHIMURIUM, Strain/Indicator: TA102, Metabolic Activation: RAT, LIVER, S-9, AROCLOR 1254, Method: STANDARD PLATE) “inactive; negative”; (Test System: AMES SALMONELLA TYPHIMURIUM, Strain/Indicator: TA1535, Metabolic Activation: HAMSTER, LIVER, HOMOGENATE (HEAT-INACTIVATED), Method: PREINCUBATION) “inactive; negative”; (Test System: AMES SALMONELLA TYPHIMURIUM, Strain/Indicator: TA1535, Metabolic Activation: HAMSTER, LIVER, HOMOGENATE, Method: PREINCUBATION) “active; positive”; (Test System: AMES SALMONELLA TYPHIMURIUM, Strain/Indicator: TA1535, Metabolic Activation: MOUSE, LIVER, HOMOGENATE, Method: PREINCUBATION) “active; positive”. Moreover, the mutagenic call runs as follows: (Test System: AMES SALMONELLA TYPHIMURIUM, Strain/Indicator: TA1535, Metabolic Activation: MOUSE, LIVER, POSTMITOCHONDRIAL SUPERNATANT, Method: PREINCUBATION) “inactive; negative”; (Test System: AMES SALMONELLA TYPHIMURIUM, Strain/Indicator: TA1535, Metabolic Activation: MOUSE, LIVER, S-9, Method: PREINCUBATION) “inactive; negative”; under setting [1], “active; positive”; (Test System: AMES SALMONELLA TYPHIMURIUM, Strain/Indicator: TA1535, Metabolic Activation: RAT, LIVER, HOMOGENATE, Method: PREINCUBATION) “active; positive”.
On to `CCCN(N=O)C(N)=O`, for which the mutagenic call reads like this: under setting [1], “active; positive”; (Test System: CHINESE HAMSTER V-79, Strain/Indicator: V-79/6-THIOGUANINE, Metabolic Activation: NONE, Method: FLASK ASSAY) “active; positive”; (Test System: E. COLI B, Strain/Indicator: H/R30R, Metabolic Activation: NONE) “active; positive”; (Test System: E. COLI B, Strain/Indicator: HS30R, Metabolic Activation: NONE) “active; positive”; (Test System: E. COLI, Strain/Indicator: WP2, Metabolic Activation: NONE, Method: STANDARD PLATE) “active; positive”; (Test System: E. COLI, Strain/Indicator: WP2 UVRA, Metabolic Activation: NONE, Method: STANDARD PLATE) “active; positive”.
As to `CCCCCCCCCCCCC1CCC1=O` (stereo not drawn), the mutagenic call (End Point: In vitro micronucleus, Test System: Human TK6 lymphoblasts, Metabolic Activation: None) was “active; positive (at highest dose)”; the mutagenic call (End Point: In vitro micronucleus, Test System: Human TK6 lymphoblasts, Metabolic Activation: Rat, Liver, S-9, Aroclor (1%)) was “active; positive (at highest dose)”; the mutagenic call (Test System: Ames Salmonella typhimurium, Strain/Indicator: TA98, Metabolic Activation: None, Method: Microtiter plate-based Miniscreen assay) is “inactive; negative”; the mutagenic call (Test System: Ames Salmonella typhimurium, Strain/Indicator: TA98, Metabolic Activation: Rat, Liver, S-9, Aroclor 1254 (5%), Method: Microtiter plate-based Miniscreen assay) is “inactive; negative”; the mutagenic call (Test System: Ames Salmonella typhimurium, Strain/Indicator: TA100, Metabolic Activation: None, Method: Microtiter plate-based Miniscreen assay) is “inactive; negative”; the mutagenic call (Test System: Ames Salmonella typhimurium, Strain/Indicator: TA100, Metabolic Activation: Rat, Liver, S-9, Aroclor 1254 (5%), Method: Microtiter plate-based Miniscreen assay) was “inactive; negative”. Moreover, the mutagenic call is “inactive; negative” (Test System: Ames Salmonella typhimurium, Strain/Indicator: TA1535, Metabolic Activation: None, Method: Microtiter plate-based Miniscreen assay); “inactive; negative” (Test System: Ames Salmonella typhimurium, Strain/Indicator: TA1535, Metabolic Activation: Rat, Liver, S-9, Aroclor 1254 (5%), Method: Microtiter plate-based Miniscreen assay); “inactive; negative” (Test System: Ames Salmonella typhimurium, Strain/Indicator: TA1537, Metabolic Activation: None, Method: Microtiter plate-based Miniscreen assay); “inactive; negative” (Test System: Ames Salmonella typhimurium, Strain/Indicator: TA1537, Metabolic Activation: Rat, Liver, S-9, Aroclor 1254 (5%), Method: Microtiter plate-based Miniscreen assay).
`CC[C@H]1OC(=O)[C@H](C)[C@@H](O[C@H]2C[C@@](C)(OC)[C@@H](O)[C@H](C)O2)[C@H](C)[C@@H](O[C@@H]2O[C@H](C)C[C@H](N(C)C)[C@H]2O)[C@](C)(OC)C[C@@H](C)C(=O)[C@H](C)[C@@H](O)[C@]1(C)O`: the mutagenic call runs as follows: (End Point: AMES SALMONELLA TYPHIMURIUM, Test System: TA98, Metabolic Activation: NONE, Method: STANDARD PLATE) “inactive; negative”; (End Point: AMES SALMONELLA TYPHIMURIUM, Test System: TA100, Metabolic Activation: NONE, Method: STANDARD PLATE) “inactive; negative”.
On to `O=C([O-])[O-].[Mn+2]`, for which the mutagenic call reads like this: (Test System: AMES SALMONELLA TYPHIMURIUM, Strain/Indicator: TA97, Metabolic Activation: NONE, Method: PREINCUBATION) “inactive; negative”; (Test System: AMES SALMONELLA TYPHIMURIUM, Strain/Indicator: TA97, Metabolic Activation: S-9, Method: PREINCUBATION) “inactive; negative”; (Test System: AMES SALMONELLA TYPHIMURIUM, Strain/Indicator: TA102, Metabolic Activation: NONE, Method: PREINCUBATION) “inactive; negative”; (Test System: AMES SALMONELLA TYPHIMURIUM, Strain/Indicator: TA102, Metabolic Activation: S-9, Method: PREINCUBATION) “inactive; negative”.
